These compounds were tested against Transcription factor Jun (Homo sapiens, UniProt P05412) (assay: Inhibition of AP1-mediated gene transcription in HepG2 cells by luciferase reporter gene assay).
Transcription factor Jun, sequence (P05412 whole entry): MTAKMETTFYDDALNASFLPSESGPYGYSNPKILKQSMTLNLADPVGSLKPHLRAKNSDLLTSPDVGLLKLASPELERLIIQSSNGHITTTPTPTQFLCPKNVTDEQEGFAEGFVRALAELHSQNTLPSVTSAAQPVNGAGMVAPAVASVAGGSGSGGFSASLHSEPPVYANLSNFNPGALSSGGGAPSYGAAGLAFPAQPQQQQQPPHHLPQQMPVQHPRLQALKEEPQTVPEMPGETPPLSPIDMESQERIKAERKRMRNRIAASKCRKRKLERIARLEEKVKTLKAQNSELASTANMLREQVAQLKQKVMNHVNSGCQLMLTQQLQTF

Question: How did the IC50 turn out when `COc1cc2c3c(c4cc(OC)c(OC)cc4c2cc1OC)[C@@H](O)[C@@H]1CCCN1C3` [(12aS,13R)-2,3,6,7-tetramethoxy-9,10,11,12,12a,13-hexahydro-9a-aza-cyclopenta[b]triphenylen-13-ol] was run?
Answer: > 300 nM

Question: With `COc1cc2c3c(c4cc(OC)c(OC)cc4c2cc1O)CN1CCC[C@H]1[C@H]3O` [(12aS,13S)-2,6,7-trimethoxy-9,10,11,12,12a,13-hexahydro-9a-aza-cyclopenta[b]triphenylene-3,13-diol] as the compound, how does the IC50 read?
Answer: > 1000 nM

Question: For `COc1cc2c(cc1OC)-c1cc(OC)c(OC)cc1C1CN3CCC[C@H]3C=C21` (stereo partly drawn) [(S)-2,3,6,7-tetramethoxy-8b,9,10,11,12,12a-hexahydro-9a-aza-cyclopenta[b]triphenylene], which IC50 is on record?
Answer: > 300 nM

Question: With `COc1ccc2c3c(c4cc(OC)c(O)cc4c2c1)CN1CCC[C@@H]1C3` [[(R)-(+)-deoxytylophorinidine] as the compound, how does the IC50 read?
Answer: 68 nM

Question: With `COc1ccc2c3c(c4cc(OC)c(O)cc4c2c1)C[N+]1([O-])CCC[C@H]1[C@H]3O` (stereo partly drawn) [tylophoridicine C] as the compound, how does the IC50 read?
Answer: > 3000 nM

Question: For `COc1ccc2c3c(c4cc(OC)c(OC)cc4c2c1)C[N+]1([O-])CCC[C@H]1[C@@H]3O` (stereo partly drawn) [tylophoridicine F], which IC50 is on record?
Answer: > 3000 nM

Question: With `COc1ccc2c3c(c4cc(OC)c(O)cc4c2c1)CN1CCC[C@H]1[C@H]3O` [tylophorinidine] as the compound, how does the IC50 read?
Answer: 65 nM

Question: `COc1ccc2c3c(c4cc(OC)c(OC)cc4c2c1)CN1CCC[C@H]1[C@@H]3O` [tylophorinine] was tested. Which IC50 did it give?
Answer: 110 nM

Reference: BindingDB's records for doi:10.1016/j.bmcl.2007.05.021 (Yale University, 2007)
